Consider 15 compounds from patent publication EP4775575A1, “COMPOUND USED AS CDK4 KINASE INHIBITOR AND USE THEREOF” (TYK Medicines, Inc., priority 2023, dated 2025).

Common to all, as to assay type: cell-based
For experiment [1], the system named is human mantle cell lymphoma cells JEKO-1. Nature of the experiment: Cell anti-proliferation assay (MTT), JEKO-1. The note with it: JEKO-1 cells, incubated for 5 days. As for the experimental part: (§1) Human breast cancer cells MCF-7, human ovarian cancer cells A2780, human mantle cell lymphoma cells JEKO-1. DMEM medium (Bio-Channel), DMSO (dimethyl sulfoxide), MTT (thiazolyl blue), 0.25% EDTA-Trypsin (trypsin digestive solution), 1×PBS (phosphate buffered saline, pH 7.2), 96-well plate (Corning), fetal bovine serum (FBS), 10,000 U/mL penicillin-G/streptomycin, high-speed refrigerated centrifuge (EPPENDORF 5810R), and microplate reader (Tecan Spark).
(§2) • A) Tumor cells were cultured in DMEM (high glucose, containing 10% FBS and 100 U/mL penicillin-G/streptomycin) at 37 °C, 5% CO2 and saturated humidity until 80-90% confluence. • B) The medium in the 10 cm culture dish was removed. • C) Cells were rinsed once with 10 mL of 1×PBS. • D) 4 mL of 0.25% EDTA-Trypsin was added, and the cells were digested in a 37 °C, 5% CO2 incubator for 5 minutes. The mixture was transferred to a 15 mL centrifuge tube, centrifuged at 200 g for 5 minutes, and the supernatant was discarded to obtain cell pellet. • E) The cells were resuspended in 4 mL of DMEM medium, counted, and adjusted to 50,000 cells/mL. • F) 100 µL of cell suspension was added to each well of a 96-well plate, and the plate was incubated overnight at 37 °C in a 5% CO2 incubator.
(§3) • A) Gradient dilution solutions of the test compounds were prepared: the test compound was prepared into a 1 mM stock solution. Then 1.5 µL of the stock solution was dissolved in 1.5 mL of DMSO-free medium, followed by 3-fold serial gradient dilution with medium containing 0.1% DMSO to give 9 concentrations.
(§4) • A) The cell culture plate was taken out, and 10 µL of 5 mg/mL MTT was added in a biological safety cabinet; • B) The plate was returned to the incubator and incubated for another 3 hours; • C) The cell culture plate was taken out and the medium was removed, 100 µL of isopropanol (containing 0.4 mM HCl, 0.1% NP-40) was added, and the plate was shaken at room temperature for 30 minutes; • D) The absorbance at 570 nm was measured using a TECAN microplate reader.

The test system of experiment [2] is human ovarian cancer cells A2780. The experiment is described as follows: Cell anti-proliferation assay (MTT), A2780. The note with it: incubated for 5 days. As for the experimental part: as §1, §2, §3, §4
The subject of experiment [3] is Human breast cancer cells MCF-7. The experiment is described as follows: Cell anti-proliferation assay (MTT), MCF-7. The note with it: MCF-7 cells, incubated for 5 days. The method, then: as §1, §2, §3, §4

Like-named read-outs stand apart in the source and are kept apart here.

The IC50 is the concentration that gives 50% inhibition.

As to `C[C@H]1CCN(C2CCC2)c2nc3c(F)cc(-c4nc(N[C@@H]5CCOC[C@H]5O)ncc4Cl)cc3n21` [TA-5], the IC50 is at most 500 nM in experiment [1] (Homo sapiens, 120 h); at most 500 nM in experiment [2] (Homo sapiens, 120 h); 500 to 2000 nM in experiment [3] (Homo sapiens, MCF7, 120 h).
`C[C@H]1CCN(C2CCCC2)c2nc3c(F)cc(-c4nc(N[C@@H]5CCOC[C@H]5O)ncc4Cl)cc3n21` [TA-6]: the IC50 in experiment [1] (Homo sapiens, 120 h) was 500 to 2000 nM; in experiment [2] (Homo sapiens, 120 h), at most 500 nM; in experiment [3] (Homo sapiens, MCF7, 120 h), at most 500 nM.
Regarding `COc1ccc(CN2CC[C@H](C)n3c2nc2c(F)cc(-c4nc(N[C@@H]5CCOC[C@H]5O)ncc4Cl)cc23)cc1` [TA-8], the concentration for half-maximal inhibition (IC50) is at most 500 nM in experiment [1] (Homo sapiens, 120 h); 500 to 2000 nM in experiment [2] (Homo sapiens, 120 h); at most 500 nM in experiment [3] (Homo sapiens, MCF7, 120 h).
Take `C[C@H]1CCN(C2COC2)c2nc3c(F)cc(-c4nc(N[C@@H]5CCOC[C@H]5O)ncc4Cl)cc3n21` [TA-30]: the 50% inhibitory concentration (IC50) was over 2000 nM in experiment [1] (Homo sapiens, 120 h); over 2000 nM in experiment [2] (Homo sapiens, 120 h); over 2000 nM in experiment [3] (Homo sapiens, MCF7, 120 h).
With `C[C@H]1CCN([C@H]2C[C@H](O)C2)c2nc3c(F)cc(-c4nc(N[C@@H]5CCOC[C@H]5O)ncc4Cl)cc3n21` [TA-31], the IC50 was at most 500 nM in experiment [1], 500 to 2000 nM in experiment [2] and over 2000 nM in experiment [3] (read-out: MCF7 IC50).
For `C[C@H]1CCN([C@H]2C[C@@H](O)C2)c2nc3c(F)cc(-c4nc(N[C@@H]5CCOC[C@H]5O)ncc4Cl)cc3n21` [TA-42], the IC50 in experiment [1] (Homo sapiens, 120 h) is 500 to 2000 nM; in experiment [2] (Homo sapiens, 120 h), 500 to 2000 nM; in experiment [3] (Homo sapiens, MCF7, 120 h), over 2000 nM.
In the case of `CN1CCCn2c1nc1c(F)cc(-c3nc(N[C@@H]4CCOC[C@H]4O)ncc3C(F)(F)F)cc12` [TB-41, (3S,4R)-4-((4-(9-fluoro-1-methyl-1,2,3,4-tetrahydrobenzo[4,5]imidazo[1,2-a]pyrimidin-7-yl)-5-(trifluoromethyl)pyrimidin-2-yl)amino)tetrahydro-2H-pyran-3-ol], the IC50 fell in the range of 500 to 2000 nM in experiment [1] (Homo sapiens, 120 h); 500 to 2000 nM in experiment [2] (Homo sapiens, 120 h); 500 to 2000 nM in experiment [3] (Homo sapiens, MCF7, 120 h).
With `CN1CCCn2c1nc1c(F)cc(-c3nc(NC4CCN(S(C)(=O)=O)CC4)ncc3Cl)cc12` [TB-43, 5-chloro-4-(9-fluoro-1-methyl-1,2,3,4-tetrahydrobenzo[4,5]imidazo[1,2-a]pyrimidin-7-yl)-N-(1-(methylsulfonyl)piperidin-4-yl)pyrimidin-2-amine], the half-maximal inhibitory concentration (IC50) in experiment [1], in experiment [2] and in experiment [3] (read-out: MCF7 IC50) was at most 500 nM each time.
On to `COC(=O)N1CCC(Nc2ncc(Cl)c(-c3cc(F)c4nc5n(c4c3)CCCN5C)n2)CC1` [TB-93, methyl 4-((5-chloro-4-(9-fluoro-1-methyl-1,2,3,4-tetrahydrobenzo[4,5]imidazo[1,2-a]pyrimidin-7-yl)pyrimidin-2-yl)amino)piperidine-1-carboxylate], for which the concentration for half-maximal inhibition (IC50) in experiment [1] (Homo sapiens, 120 h) was at most 500 nM; in experiment [2] (Homo sapiens, 120 h) it was at most 500 nM; in experiment [3] (Homo sapiens, MCF7, 120 h) it was 500 to 2000 nM.
Consider `CN1CCC(C)(C)n2c1nc1c(F)cc(-c3cc(N[C@@H]4CCOC[C@H]4O)ncc3Cl)cc12` [TB-150], for which the IC50 was at most 500 nM in experiment [1] (Homo sapiens, 120 h); at most 500 nM in experiment [2] (Homo sapiens, 120 h); at most 500 nM in experiment [3] (Homo sapiens, MCF7, 120 h).
Consider `C[C@H]1C[C@H](C)n2c(nc3c(F)cc(-c4nc(N[C@@H]5CCOC[C@H]5O)ncc4Cl)cc32)N1C` [TB-153], for which the IC50 in experiment [1], in experiment [2] and in experiment [3] (read-out: MCF7 IC50) was at most 500 nM in each case.
On to `C[C@H]1CC(=O)N(C)c2nc3c(F)cc(-c4cc(N[C@@H]5CCOC[C@H]5O)ncc4Cl)cc3n21` [TB-158], for which the concentration for half-maximal inhibition (IC50) is at most 500 nM in experiment [1] (Homo sapiens, 120 h); at most 500 nM in experiment [2] (Homo sapiens, 120 h); at most 500 nM in experiment [3] (Homo sapiens, MCF7, 120 h).
On to `C[C@H]1CCN(CC(F)F)c2nc3c(F)cc(-c4nc(N[C@@H]5CCOC[C@H]5O)ncc4Cl)cc3n21` [TC-6], for which the concentration for half-maximal inhibition (IC50) was at most 500 nM in experiment [1] (Homo sapiens, 120 h); at most 500 nM in experiment [2] (Homo sapiens, 120 h); 500 to 2000 nM in experiment [3] (Homo sapiens, MCF7, 120 h).
Take `C[C@H]1CCN(S(C)(=O)=O)c2nc3c(F)cc(-c4nc(N[C@@H]5CCOC[C@H]5O)ncc4Cl)cc3n21` [TC-8]: the IC50 was over 2000 nM in experiment [1] (Homo sapiens, 120 h); 500 to 2000 nM in experiment [2] (Homo sapiens, 120 h); over 2000 nM in experiment [3] (Homo sapiens, MCF7, 120 h).
Turning to `C[C@H]1CCN(c2c(F)cccc2F)c2nc3c(F)cc(-c4nc(N[C@@H]5CCOC[C@H]5O)ncc4Cl)cc3n21` [TC-15], the IC50 lay within 500 to 2000 nM in experiment [1] (Homo sapiens, 120 h); 500 to 2000 nM in experiment [2] (Homo sapiens, 120 h); 500 to 2000 nM in experiment [3] (Homo sapiens, MCF7, 120 h).
